From patent US20080194585A1, “Fungicidal Pyrazine Derivatives” (priority 2005, published 2008)
Marks after values point to notes of the source that are not given here.

What was measured:
Plasmopara viticola = test: Test D: grape downy mildew, spray after inoculation of grape seedlings; format: in vivo; conditions: 200 ppm
Excerpt: Upon removal, disease ratings were made. […] A dash (-) indicates no test results.

Phytophthora infestans = test: whole plant or invertebrate; format: in vivo; conditions: 200 ppm
Septoria tritici = test: Test J: wheat leaf blotch, preventive spray on wheat seedlings; format: in vivo
Excerpt: A dash (-) indicates no test results.

fusarium graminearium = test: Test I: wheat head scab, preventive spray on wheat seedlings; conditions: 200 ppm
Description: (the causal agent of wheat head scab) and incubated in a saturated atmosphere at 20° C. for 72 h, and then moved to a growth chamber at 22° C. for 5 days, after which disease ratings were made.

[1] = tested on: Puccinia recondita f. sp. tritici; test: Test K: wheat leaf rust, preventive spray on wheat seedlings
Botrytis cinerea = test: Test E: tomato botrytis, preventive spray on tomato seedlings
Septoria nodorum = test: Test H: wheat glum blotch, preventive spray on wheat seedlings
Description: (the causal agent of wheat glum blotch) and incubated in a saturated atmosphere at 20° C. for 48 h, and then moved to a growth chamber at 22° C. for 5 days, after which disease ratings were made.

[2] = tested on: Erysiphe graminis f. sp. tritici; test: Test L: wheat powdery mildew, preventive spray on wheat seedlings
Pythium aphanidermatum = test: Test A: bluegrass pythium blight, preventive spray on bluegrass seedlings; conditions: 200 ppm
Rhizoctonia oryzae = test: Test G: turf brown patch, preventive spray on creeping bent grass seedlings
Description: (the causal agent of turf brown patch) and incubated in a saturated atmosphere at 27° C. for 24 h, and then moved to a growth chamber at 27° C. for 5 days, after which disease ratings were made.

[3] = tested on: Colletotrichum orbiculare; test: Test B: cucumber Colletotrichum anthracnose, preventive spray on cucumber seedlings

| SMILES | Test D disease control rating (Plasmopara viticola) | Test F disease control rating (Phytophthora infestans) | Test J disease control rating (Septoria tritici; 200 ppm) | Test I disease control rating (fusarium graminearium) | Test K disease control rating ([1]; 200 ppm) | Test E disease control rating (Botrytis cinerea; 200 ppm) | Test H disease control rating (Septoria nodorum; 200 ppm) | Test L disease control rating ([2]; 200 ppm) | Test A disease control rating (Pythium aphanidermatum) | Test G disease control rating (Rhizoctonia oryzae; 200 ppm) | Test B disease control rating ([3]; 200 ppm) | Test J disease control rating (Septoria tritici; 40 ppm (*)) | Test K disease control rating ([1]; 40 ppm (*)) | Test E disease control rating (Botrytis cinerea; 40 ppm (*)) | Test H disease control rating (Septoria nodorum; 40 ppm (*)) | Test L disease control rating ([2]; 40 ppm (*)) | Test G disease control rating (Rhizoctonia oryzae; 40 ppm (*)) | Test B disease control rating ([3]; 40 ppm (*)) |
| --- | --- | --- | --- | --- | --- | --- | --- | --- | --- | --- | --- | --- | --- | --- | --- | --- | --- | --- |
| CC(C)C(C)n1c(-c2c(F)cccc2F)c(Cl)nc(-n2cccn2)c1=O (stereo not shown) [compound 29] | 0% | 0% | 100% | 0% | 100% | 80% | 99% | 98% | 0% | 95% | 99% | – | – | – | – | – | – | – |
| C=C(C)Cn1c(-c2c(F)cccc2F)c(Cl)nc(-n2cccn2)c1=O [compound 30] | 0% | 0% | 100% | 0% | 100% | 99% | 100% | 100% | 0% | 98% | 99% | – | – | – | – | – | – | – |
| O=c1c(-n2cccn2)nc(Cl)c(-c2c(F)cccc2F)n1CC1CCCCC1 [compound 31] | 0% | 0% | 100% | 0% | 88% | 97% | 73% | 69% | 0% | 0% | 0% | – | – | – | – | – | – | – |
| CCC(C)Cn1c(-c2c(F)cccc2F)c(Cl)nc(-n2ccnn2)c1=O (stereo not shown) [compound 60] | 0% | 0% | – | 0% | – | – | – | – | 0% | – | – | 40* % | 68* % | 95* % | 0* % | 0* % | 0* % | 0* % |
| CCC(C)Cn1c(-c2c(F)cccc2F)c(Cl)nc(-n2ccnc2)c1=O (stereo not shown) [compound 61] | 0% | 0% | 40% | 0% | 0% | 0% | 0% | 0% | 0% | 0% | 0% | – | – | – | – | – | – | – |
| CCC(C)Cn1c(-c2c(F)cccc2F)c(Cl)nc(-n2nc(C)cc2C)c1=O (stereo not shown) [compound 62] | 0% | 0% | 15% | 0% | 83% | 31% | 0% | 0% | 0% | 0% | 0% | – | – | – | – | – | – | – |
| CCC(C)Cn1c(-c2c(F)cccc2F)c(Cl)nc(-n2ccc(C(F)(F)F)n2)c1=O (stereo not shown) [compound 63] | 0% | 0% | 90% | 0% | 89% | 0% | 0% | 0% | 0% | 72% | 0% | – | – | – | – | – | – | – |
| CCC(C)Cn1c(-c2c(F)cccc2F)c(Cl)nc(-n2nc(C)cc2C(F)(F)F)c1=O (stereo not shown) [compound 64] | 16% | 0% | 71% | 0% | 97% | 54% | 0% | 0% | 0% | 24% | 0% | – | – | – | – | – | – | – |
| CCC(C)Cn1c(-c2c(F)cccc2F)c(Cl)nc(-n2ccc(Br)n2)c1=O (stereo not shown) [compound 65] | 0% | 0% | 100% | 0% | 98% | 99% | 0% | 0% | 0% | 83% | 33% | – | – | – | – | – | – | – |
| CC(C)Cn1c(-c2c(F)cccc2F)c(Cl)nc(NN=C2CCCC2)c1=O [compound 73] | 0% | 0% | 59% | 0% | 80% | 97% | 0% | 0% | 0% | 0% | 0% | – | – | – | – | – | – | – |
| Cc1ccc(-c2c(Cl)nc(-n3cncn3)c(=O)n2CC(C)C)c(C)c1 [compound 79] | 0% | 0% | 100% | 0% | 97% | 100% | 100% | 92% | 0% | 46% | 83% | – | – | – | – | – | – | – |
| CC(C)Cn1c(-c2cc(Br)c3c(c2)OCO3)c(Cl)nc(-n2cccn2)c1=O [compound 89] | 0% | 0% | 0% | 0% | 0% | 0% | 0% | 0% | 0% | 0% | 0% | – | – | – | – | – | – | – |
| CC(C)Cn1c(-c2c(F)cccc2F)c(Cl)nc(-c2cnn(C)c2)c1=O [compound 100] | 0% | 0% | 3% | 0% | 26% | 0% | 0% | 13% | 0% | 0% | 0% | – | – | – | – | – | – | – |
| CC(C)Cn1c(-c2c(F)cccc2F)c(Cl)nc(-c2nccn2C)c1=O [compound 102] | 0% | 0% | 0% | 0% | 0% | 0% | 0% | 0% | 0% | 0% | 0% | – | – | – | – | – | – | – |
